Reference: patent publication EP2293808B1, “AN SYNTHETIC PEPTIDE CONTAINING BONE FORMING PEPTIDE 1(BFP 1) FOR STIMULATING OSTEOBLAST DIFFERENTIATION, AND PHARMACEUTICAL COMPOSITION COMPRISING THE SYNTHETIC PEPTIDE” (Industry Foundation Of Chonnam National University, priority 2008, dated 2012)
Ends that are not written are not given here.

Tested on: cells
Assay: MTT assay for cytotoxicity
Format: cell-based
Conditions: within a range of used concentrations, FIG. 3

GQGFSYPYKAVFSTQ [BFP 1, Gly-Gln-Gly-Phe-Ser-Tyr-Pro-Tyr-Lys-Ala-Val-Phe-Ser-Thr-Gln]
cytotoxicity: not toxic to cells
